The text below walks through data of patent publication US20260053171A1, “METHANOGEN INHIBITORS” (AGRIZERONZ LIMITED PARTNERSHIP, priority 2022, published 2026).

Where only a bound is given, the exact number is not on record here.

This assay concerns methane production in rumen fluid. In words: Rumen in vitro (RIV) assay, methane production from rumen fluid incubations. The following applies: Bos taurus, read-out: RIV % methane reduction +/− SD. The format is cell-based, cattle. On the procedure:
The compounds of the present invention were initially screened for activity using an in vitro fully automated incubation system for the measurement of total gas production and gas composition (methane and hydrogen). The system used is described in detail in the paper by Muetzel et al. (2014; Animal Feed Science and Technology 196, 1-11). The system in this specification is referred to as the rumen in vitro system or RIV. The RIV system provides a relatively simple tool for determining the rate and production of methane and also whether the rate and production of methane is inhibited or reduced by a particular compound or feed. Rumen in vitro assays use rumen fluid from donor animals (typically either sheep or cattle) which is typically combined with a buffer and then incubated in sealed fermentation vessels at 39° C. for either 24 or 48 h. These assays systems have been well-characterised and used by the scientific community over the last two decades (Rymer et al. 2005). The system that has been used here to characterise the effects of inhibitors on methane production and gas production, and the formation of H2, was described by Muetzel et al. (2014). Rumen in vitro assay systems reflect what can occur in the rumen in vivo, but only short-term, due to their short incubation times (typically not exceeding 48 h) which is limited by its buffering capacity and the fact that it is a closed system. Stock solutions of inhibitors were re-suspended in dimethylformamide (DMF) at concentrations 1000-fold higher than the highest used for the assays. Any further dilutions were also prepared using DMF. The total amount of inhibitor solution added to the rumen fluid-buffer mixture (60 mL) was 60 μl. Incubations used 60 ml of medium containing 12 ml of filtered rumen fluid and 48 ml of buffer in serum bottles for 24-48 h, essentially as described by Muetzel et al. (2014). Two fistulated cattle were used as donor animals for rumen fluid and treatments were incubated in duplicate bottles. Sets of duplicate incubation vials that contained ryegrass (with rumen fluid-buffer mixture), and ryegrass with 30 μM bromoethanesulfonate (BES) were also incubated as negative and positive controls, respectively. One experiment consists of 2 replicates of an inhibitor at any one concentration run at the same time, and a run can contain up to 32 bottle, including positive (30 µM BES) and negative (no inhibitor added) controls. Compound 1, for example, was tested using the 60 mL rumen in vitro assay system at 50 μM, 10 μM, and 2 μM final concentrations and compared to a positive control with 30 µM BES.

In the case of `COc1ccc(-c2ccc(C3=NN(C(=O)CCC(=O)O)C(c4ccc5nccnc5c4)C3)cc2)cc1` (stereo not shown) [Compound 25, 4-(3-(4′-Methoxy-[1,1′-biphenyl]-4-yl)-5-(quinoxalin-6-yl)-4,5-dihydro-1H-pyrazol-1-yl)-4-oxobutanoic acid], the inhibition at 2 µM is less than 5% and the inhibition at 10 µM is 83.7 ± 0.4%.
Regarding `O=C(O)CCC(=O)N1N=C(c2ccc(-c3ccc(Cl)cc3Cl)cc2)CC1c1ccc2nccnc2c1` (stereo not shown) [Compound 26, 4-(3-(2′,4′-Dichloro-[1,1′-biphenyl]-4-yl)-5-(quinoxalin-6-yl)-4,5-dihydro-1H-pyrazol-1-yl)-4-oxobutanoic acid], the inhibition at 10 µM was 65.8 ± 3.7% and the inhibition at 50 µM came out at 96 ± 1.1%.
The like results for `O=C(O)CCC(=O)N1N=C(c2ccc(-c3ccc(Cl)c(Cl)c3)cc2)CC1c1ccc2nccnc2c1` (stereo not shown) [Compound 27, 4-(3-(3′,4′-Dichloro-[1,1′-biphenyl]-4-yl)-5-(quinoxalin-6-yl)-4,5-dihydro-1H-pyrazol-1-yl)-4-oxobutanoic acid] were, in that order, 48.3 ± 7.5% and 92.1 ± 1.1%.
Take `O=C(O)CCC(=O)N1N=C(c2ccc(-c3cc(Cl)cc(Cl)c3)cc2)CC1c1ccc2nccnc2c1` (stereo not shown) [Compound 28, 4-(3-(3′,5′-Dichloro-[1,1′-biphenyl]-4-yl)-5-(quinoxalin-6-yl)-4,5-dihydro-1H-pyrazol-1-yl)-4-oxobutanoic acid]: the inhibition at 2 µM amounted to 8 ± 2.1%, the inhibition at 10 µM worked out at 84 ± 0.8% and the inhibition at 50 µM came out at 96.1 ± 0.1%.
With `O=C(O)CCC(=O)N1N=C(c2ccc(-c3ccccc3)cn2)CC1c1ccc2nccnc2c1` (stereo not shown) [Compound 29, 4-Oxo-4-(3-(5-phenylpyridin-2-yl)-5-(quinoxalin-6-yl)-4,5-dihydro-1H-pyrazol-1-yl)butanoic acid], the inhibition at 50 µM was 33.3 ± 0.6%.
As for `O=C(O)CCC(=O)N1N=C(c2ccc(-c3cccnc3)cc2)CC1c1ccc2nccnc2c1` (stereo not shown) [Compound 30, 4-Oxo-4-(3-(4-(pyridin-3-yl)phenyl)-5-(quinoxalin-6-yl)-4,5-dihydro-1H-pyrazol-1-yl)butanoic acid], the inhibition at 50 µM turned out to be 9.3 ± 2.8%.
The same measure, in the same setting: the result for `O=C(O)CCC(=O)N1N=C(c2ccc3ccccc3c2)CC1c1ccc2nccnc2c1` (stereo not shown) [Compound 31, 4-(3-(Naphthalen-2-yl)-5-(quinoxalin-6-yl)-4,5-dihydro-1H-pyrazol-1-yl)-4-oxobutanoic acid] reads 56.6 ± 6.9%.
For the compound `O=C(O)CCC(=O)N1N=C(c2ccc(Cl)cc2)CC1c1cnc2ccccc2n1` (stereo not shown) [Compound 32, 4-(3-(4-Chlorophenyl)-5-(quinoxalin-2-yl)-4,5-dihydro-1H-pyrazol-1-yl)-4-oxobutanoic acid], the inhibition at 10 µM is less than 5% and the inhibition at 50 µM came out at 81 ± 2%.
With `O=C(O)CCC(=O)N1N=C(c2ccc(Cl)cc2)CC1c1cccc2nccnc12` (stereo not shown) [Compound 33, 4-(3-(4-Chlorophenyl)-5-(quinoxalin-5-yl)-4,5-dihydro-1H-pyrazol-1-yl)-4-oxobutanoic acid], the inhibition at 50 µM was 18.4 ± 3.7%.
Same read-out and setting: to `O=C(O)CCC(=O)N1N=C(c2ccc(Cl)cc2)CC1c1ccc2cccnc2c1` (stereo not shown) [Compound 34, 4-(3-(4-Chlorophenyl)-5-(quinolin-7-yl)-4,5-dihydro-1H-pyrazol-1-yl)-4-oxobutanoic acid] belongs 22 ± 2.1%.
Turning to `O=C(O)CCC(=O)N1N=C(c2ccc(Cl)cc2)CC1c1ccc2nonc2c1` (stereo not shown) [Compound 35, 4-(5-(Benzo[c][1,2,5]oxadiazol-5-yl)-3-(4-chlorophenyl)-4,5-dihydro-1H-pyrazol-1-yl)-4-oxobutanoic acid], the inhibition at 10 µM came out at 43.6 ± 6.6% and the inhibition at 50 µM was 91.3 ± 2.1%.
In the same order, the values of `O=C(O)CCC(=O)N1N=C(c2ccc(Cl)cc2)CC1c1ccc2nsnc2c1` (stereo not shown) [Compound 36, 4-(5-(Benzo[c][1,2,5]thiadiazol-5-yl)-3-(4-chlorophenyl)-4,5-dihydro-1H-pyrazol-1-yl)-4-oxobutanoic acid] are 33.4 ± 2.3% and 91.3 ± 0.2%.
For `O=C(O)CCC(=O)N1N=C(c2ccc(Cl)cc2)CC1c1ccc2c(c1)OCO2` (stereo not shown) [Compound 37, 4-(5-(benzo[d][1,3]dioxol-5-yl)-3-(4-chlorophenyl)-4,5-dihydro-1H-pyrazol-1-yl)-4-oxobutanoic acid], the inhibition at 50 µM amounted to 15.6 ± 2%.
`O=C(O)CCC(=O)N1N=C(c2ccc(Cl)cc2)CC1c1ccc2c(c1)OC(F)(F)O2` (stereo not shown) [Compound 38, 4-(3-(4-Chlorophenyl)-5-(2,2-difluorobenzo[d][1,3]dioxol-5-yl)-4,5-dihydro-1H-pyrazol-1-yl)-4-oxobutanoic acid]: the inhibition at 10 µM is 55.8 ± 1.8% and the inhibition at 50 µM was determined as 93.4 ± 0.5%.
The like results for `O=C(O)CCC(=O)N1N=C(c2ccc(Cl)cc2)CC1c1ccc2c(c1)OCCO2` (stereo not shown) [Compound 39, 4-(3-(4-Chlorophenyl)-5-(2,3-dihydrobenzo[b][1,4]dioxin-6-yl)-4,5-dihydro-1H-pyrazol-1-yl)-4-oxobutanoic acid] were, in that order, 20 ± 5.1% and 79.2%.
In the same order, the values of `O=C(O)CCC(=O)N1N=C(c2ccc(-c3ccccc3)cc2)CC1c1ccc2c(c1)OCCO2` (stereo not shown) [Compound 40, 4-(3-([1,1′-Biphenyl]-4-yl)-5-(2,3-dihydrobenzo[b][1,4]dioxin-6-yl)-4,5-dihydro-1H-pyrazol-1-yl)-4-oxobutanoic acid] are 39.8 ± 1.3% and 89.5 ± 1.4%.
In the case of `COc1cccc(C2CC(c3ccc(Cl)cc3)=NN2C(=O)CCC(=O)O)c1` (stereo not shown) [Compound 41, 4-(3-(4-Chlorophenyl)-5-(3-methoxyphenyl)-4,5-dihydro-1H-pyrazol-1-yl)-4-oxobutanoic acid], the inhibition at 50 µM came to 13.4 ± 3.2%.
Regarding `COc1ccc(C2CC(c3ccc(Cl)cc3)=NN2C(=O)CCC(=O)O)c(OC)c1` (stereo not shown) [Compound 42, 4-(3-(4-Chlorophenyl)-5-(2,4-dimethoxyphenyl)-4,5-dihydro-1H-pyrazol-1-yl)-4-oxobutanoic acid], the inhibition at 10 µM turned out to be 10.5 ± 3.5% and the inhibition at 50 µM is 80 ± 4.7%.
For the compound `COc1ccc(C2CC(c3ccc(Cl)cc3)=NN2C(=O)CCC(=O)O)cc1OC` (stereo not shown) [Compound 43, 4-(3-(4-Chlorophenyl)-5-(3,4-dimethoxyphenyl)-4,5-dihydro-1H-pyrazol-1-yl)-4-oxobutanoic acid], the inhibition at 50 µM stood at 39.7 ± 7.2%.
Regarding `COc1ccc(C2CC(c3ccc(Cl)cc3)=NN2C(=O)CCC(=O)O)cc1O` (stereo not shown) [Compound 44, 4-(3-(4-Chlorophenyl)-5-(3-hydroxy-4-methoxyphenyl)-4,5-dihydro-1H-pyrazol-1-yl)-4-oxobutanoic acid], the inhibition at 50 µM was 31.3 ± 0.8%.
Take `COc1cc(C2CC(c3ccc(Cl)cc3)=NN2C(=O)CCC(=O)O)ccc1O` (stereo not shown) [Compound 45, 4-(3-(4-Chlorophenyl)-5-(4-hydroxy-3-methoxyphenyl)-4,5-dihydro-1H-pyrazol-1-yl)-4-oxobutanoic acid]: the inhibition at 10 µM is 9.9 ± 1.8% and the inhibition at 50 µM is 73.1 ± 8.6%.
For `COc1cc(C2CC(c3ccc(-c4ccccc4)cc3)=NN2C(=O)CCC(=O)O)ccc1O` (stereo not shown) [Compound 46, 4-(3-([1,1′-Biphenyl]-4-yl)-5-(4-hydroxy-3-methoxyphenyl)-4,5-dihydro-1H-pyrazol-1-yl)-4-oxobutanoic acid], the inhibition at 50 µM was 48.6 ± 1.7%.
In the case of `CCOc1cc(C2CC(c3ccc(Cl)cc3)=NN2C(=O)CCC(=O)O)ccc1O` (stereo not shown) [Compound 47, 4-(3-(4-Chlorophenyl)-5-(3-ethoxy-4-hydroxyphenyl)-4,5-dihydro-1H-pyrazol-1-yl)-4-oxobutanoic acid], the inhibition at 50 µM came to 68.3 ± 3.9%.
With `COc1cc(C2CC(c3ccc(Cl)cc3)=NN2C(=O)CCC(=O)O)ccc1F` (stereo not shown) [Compound 48, 4-(3-(4-Chlorophenyl)-5-(4-fluoro-3-methoxyphenyl)-4,5-dihydro-1H-pyrazol-1-yl)-4-oxobutanoic acid], the inhibition at 50 µM was found to be 43.6 ± 4.5%.
For `O=C(O)CC(=O)N1N=C(c2ccc(Cl)cc2)CC1c1ccc2nccnc2c1` (stereo not shown) [Compound 49, 3-(3-(4-Chlorophenyl)-5-(quinoxalin-6-yl)-4,5-dihydro-1H-pyrazol-1-yl)-3-oxopropanoic acid], the inhibition at 50 µM came out at 8.1 ± 7.7%.
On to `O=C(O)CCCC(=O)N1N=C(c2ccc(Cl)cc2)CC1c1ccc2nccnc2c1` (stereo not shown) [Compound 50, 5-(3-(4-Chlorophenyl)-5-(quinoxalin-6-yl)-4,5-dihydro-1H-pyrazol-1-yl)-5-oxopentanoic acid], for which the inhibition at 50 µM came to 66.4 ± 2.9%.
Still for that read-out and setting: to `O=C(O)/C=C/C(=O)N1N=C(c2ccc(Cl)cc2)CC1c1ccc2nccnc2c1` (stereo not shown) [Compound 51, (E)-4-(3-(4-Chlorophenyl)-5-(quinoxalin-6-yl)-4,5-dihydro-1H-pyrazol-1-yl)-4-oxobut-2-enoic acid] belongs 57.1 ± 7.5%.
